In patent US20120238615A1, “Alpha adrenergic receptor modulators” (Allergan, Inc., priority 2009, published 2012):

Target: T1, alpha-2C (Homo sapiens, UniProt P18825)
T1 construct: expressed in transfected cells
T1 sequence (P18825 1-462): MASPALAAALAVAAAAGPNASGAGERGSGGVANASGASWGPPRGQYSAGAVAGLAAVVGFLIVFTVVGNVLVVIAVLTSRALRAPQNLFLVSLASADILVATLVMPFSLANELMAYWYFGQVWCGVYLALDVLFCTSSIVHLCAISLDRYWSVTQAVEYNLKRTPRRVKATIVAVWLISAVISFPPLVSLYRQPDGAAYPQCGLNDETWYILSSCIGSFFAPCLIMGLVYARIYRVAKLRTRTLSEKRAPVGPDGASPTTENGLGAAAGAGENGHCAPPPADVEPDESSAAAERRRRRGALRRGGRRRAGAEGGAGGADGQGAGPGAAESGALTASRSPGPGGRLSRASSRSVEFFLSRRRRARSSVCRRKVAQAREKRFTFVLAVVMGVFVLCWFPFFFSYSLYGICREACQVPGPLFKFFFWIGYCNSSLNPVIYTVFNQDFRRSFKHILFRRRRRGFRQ
Experiment: FLIPR calcium assay for alpha adrenergic activity
Type: cell-based
Conditions: cells expressing alpha-2C and G-protein (Gqi5 or G16); for EC50: fluo-4 calcium signal, agonist, read-out: Potency (nM) Alpha 2C (EC50); for efficacy Alpha 2C (relative efficacy compared to a standard full agonist, in parentheses): relative to norepinephrine
Text: Compounds described herein were synthesized and tested for alpha adrenergic activity using a Fluorometric Imaging plate Reader (FLIPR) assay (Princen et al., 2003, Cytometry Part A. 51, pp. 35-45). Cells expressing the receptor of interest (alpha-2C) and a G-protein (Gqi5 or G16) are loaded with fluo-4, a calcium sensitive dye. After removal of excess dye by washing, the cells are placed in the FLIPR TETRA instrument. Baseline fluorescence readings are taken prior to addition of the compounds. Agonists will trigger the receptor to interact with the G-protein, leading to an increase in intracellular calcium. The increase in intracellular calcium causes an increase in the fluorescence of the cells, due to the presence of fluo-4. This fluorescence increase is recorded by the FLIPR TETRA. After the calcium transient signal has decreased towards baseline, the standard agonist norepinephrine is added. If the compound is an antagonist, an initial calcium signal will not be generated and the antagonist will prevent the generation of a calcium signal from norepinephrine. The level of fluorescence is compared to that of norepinephrine, and the EC50 of the compound determined by curve fitting. […] The compounds described herein activate alpha adrenergic receptors.

EC50	efficacy Alpha 2C (relative efficacy compared to a standard full agonist, in parentheses)	SMILES
243 nM	(1)	COc1c(C)cccc1NC1=NCCC1 [Compound 5, N-(2-methoxy-3-methylphenyl)-3,4-dihydro-2H-pyrrol-5-amine]
288 nM	(1)	Cc1c(Br)cccc1NC1=NCCC1 [Compound 10, N-(3-bromo-2-methylphenyl)-3,4-dihydro-2H-pyrrol-5-amine]
743 nM	(1)	Cc1ccccc1NC1=NCCC1 [Compound 13, N-(2-methylphenyl)-3,4-dihydro-2H-pyrrol-5-amine]
348 nM	(1)	Cc1cccc(C)c1NC1=NCCC1 [Compound 15, N-(2,6-dimethylphenyl)-3,4-dihydro-2H-pyrrol-5-amine]
44 nM	(1)	Clc1cccc(Cl)c1NC1=NCCC1 [Compound 12, N-(2,6-dichlorophenyl)-3,4-dihydro-2H-pyrrol-5-amine]
186 nM	(1)	COc1cccc(NC2=NCCC2)c1C [Compound 8, N-(3-methoxy-2-methylphenyl)-3,4-dihydro-2H-pyrrol-5-amine]
663 nM	(1)	Cc1cccc(NC2=NCCC2)c1Br [Compound 1, N-(2-bromo-3-methyl-phenyl)-3,4-dihydro-2H-pyrrol-5-amine]
635 nM	(1)	Cc1cccc(NC2=NCCC2)c1Cl [Compound 4, N-(2-chloro-3-methylphenyl)-3,4-dihydro-2H-pyrrol-5-amine]
975 nM	(1)	COc1c(Cl)cccc1NC1=NCCC1 [Compound 2, N-(3-chloro-2-methoxyphenyl)-3,4-dihydro-2H-pyrrol-5-amine]
26 nM	(1)	Fc1c(Cl)cccc1NC1=NCCC1 [Compound 6, N-(3-chloro-2-fluorophenyl)-3,4-dihydro-2H-pyrrol-5-amine]
756 nM	(1)	Cc1c(F)cccc1NC1=NCCC1 [Compound 9, N-(3-fluoro-2-methylphenyl)-3,4-dihydro-2H-pyrrol-5-amine]
32 nM	(1)	COc1cccc(NC2=NCCC2)c1Br [Compound 7, N-(2-bromo-3-methoxyphenyl)-3,4-dihydro-2H-pyrrol-5-amine]
796 nM	(1)	FC(F)(F)c1ccccc1NC1=NCCC1 [Compound 14, N-[2-(trifluoromethyl)phenyl]-3,4-dihydro-2H-pyrrol-5-amine]
71 nM	(1)	Cc1c(Cl)cccc1NC1=NCCC1 [Compound 3, N-(3-chloro-2-methylphenyl)-3,4-dihydro-2H-pyrrol-5-amine]
118 nM	(1)	Cc1cccc(NC2=NCCC2)c1C [Compound 16, N-(2,3-dimethylphenyl)-3,4-dihydro-2H-pyrrol-5-amine]
709 nM	(1)	Clc1ccccc1NC1=NCCC1 [Compound 11, N-(2-chlorophenyl)-3,4-dihydro-2H-pyrrol-5-amine]
